Source: patent US20050187208A1 (priority 2004, published 2005)

Legend:
[1] = target: T1, transfected human CB1 receptor (Homo sapiens, UniProt P21554); experiment: In-vitro determination of affinity to CB1 receptor, radioligand [^3H]-CP55940; format: binding; conditions: for inhibition at 1 µM: read-out: CB1 Receptor % Inhibition 10^−6 M
T1 construct: purchased Receptor Biology, Inc
Protocol: (§1) I. In-vitro Determination of Affinity to CB1/CB2-Rezeptors
(§2) The in-vitro determination of the affinity of the inventive substituted azetidine compounds to CB1/CB2-Receptors is carried out as described in the publication of Ruth A. Ross, Heather C. Brockie et al., “Agonist-inverse agonist characterization at CB1 and CB2 cannabinoid receptors of L-759633, L759656 and AM630”, British Journal of Pharmacology, 126, 665-672, (1999). The respective parts of the descriptions are hereby incorporated by reference and form part of the present disclosure. The transfected human CB1 and CB2 receptor are obtained from Receptor Biology, Inc. The radioligand used for both receptors is [^3H]-CP55940.
(§3) The affinity of the inventive substituted azetidine compounds to CB1/CB2 receptors is determined as described above.

cannabinoid receptors [2] = experiment: Mouse tetrad model, agonistic effect (hot plate, hypothermia, catalepsy, sedation); format: in vivo; design: key to Agonistic effect A: Hot-Plate test: % MPE = (PT−B)/(PC−B)×100; key to Agonistic effect D: Sedation: % sedation = mean score (0-3)/3×100; Agonistic effect B: Hypothermia: unit not given here; conditions: 5 mg/kg i.v., male NMRI mice; for Agonistic effect A: Hot-Plate test: 15 minutes after injection; for Agonistic effect B: Hypothermia / Agonistic effect C: Catalepsy / Agonistic effect D: Sedation: 20 minutes after injection
Source text: (§4) Substances with affinity for cannabinoid receptors are known to produce a wide range of pharmacological effects. It is also known that intravenous administration of a substance with affinity for cannabinoid receptors in mice produces analgesia, hypothermia, sedation and catalepsy. Individually, none of these effects can be considered as proof that a tested substance has affinity for cannabinoid-receptors, since all of these effects are common for various classes of centrally active agents. However, substances, which show all of these effects, i.e. substances that are active in this so-called tetrad model are considered to have affinity for the cannabinoid receptors. It has further been shown that cannabinoid receptor antagonists are higly effective in blocking the effects of a cannabinoid agonist in the mouse tetrad model.
(§5) The tetrad model is described, for example, in the publication of A. C. Howlett et al, International Union of Pharmacology XXVII. Classification of Cannabinoid Receptors, Pharmacol Rev 54, 161-202, 2002 and David R. Compton et al., “In-vivo Characterization of a Specific Cannabinoid Receptor Antagonist (SR141716A): Inhibition of Tetrahydrocannbinol-induced Responses and Apparent Agonist Activity”, J. Pharmacol. Exp. Ther. 277, 2, 586-594, 1996. The corresponding parts of the description are hereby incorporated by reference.
(§6) Male NMRI mice with a weight of 20-30 g (Harlan, Barcelona, Spain) are used in all of the following experiments.
(§7) Before testing in the behavioral procedures given below, mice are acclimatized to the experimental setting. Pre-Treatment control values are determined for analgesia hot plate latency (in seconds), rectal temperature, sedation and catalepsy.
(§8) In order to determine the agonistic activty of the substance to be tested, the mice are injected intravenously with the substance to be tested or the vehicle alone. 15 minutes after injection, latency in hot plate analgesia is measured. Rectal temperature, sedation and catalepsy are measured 20 minutes after injection.
(§9) The hot plate analgesia is determined according to the method described in Woolfe D. et al. “The evaluation of analgesic action of pethidine hydrochloride (Demerol)”, J. Pharmacol. Exp. Ther. 80, 300-307, 1944. The respective description is hereby incorporated by reference and forms part of the present disclosure.
(§10) The mice are placed on a hot plate (Harvard Analgesimeter) at 55±0.5° C. until they show a painful sensation by licking their paws or jumping and the time for these sensations to occur is recorded. This reading is considered the basal value (B). The maximum time limit the mice are allowed to remain on the hot plate in absence of any painful response is 40 seconds in order to prevent skin damage. This period is called the cut-off time (PC).
(§11) Fifteen minuts after the administration of the substance to be tested, the mice are again placed on the hot plate and the afore described procedure is repeated. This period is called the post-treatment reading (PT).
(§12) The degree of analgesia is calculated from the formula: % MPE of Analgesia=(PT−B)/(PC−B)×100 • MPE Maximum possible effect. Determination of Sedation and Ataxia
(§13) Sedation and ataxia is determined according to the method described in Desmet L. K. C. et al. “Anticonvulsive properties of.Cinarizine and Flunarizine in Rats and Mice”, Arzneim. -Forsch. (Frug Res) 25, 9, 1975. The respective description is hereby incorporated by reference and forms part of the present disclosure.
The chosen scoring system is • 0: no ataxia; • 1: doubful; • 2: obvious calmness and quiet; • 3 pronounced ataxia; prior to as well as after treatment.
The percentage of sedation is determined according to the formula: % of sedation=arithmetic mean/3×100 Hypothermia: […]

cannabinoid receptors [3] = experiment: Mouse tetrad model, antagonistic effect against Win 55212-2; format: in vivo; design: unit not given here; conditions: 5 mg/kg i.v. prior to Win 55212-2 1.25 mg/kg i.v.; male NMRI mice
Source text: as §4, §5, §6, §7, §8
In order to determine the antagonistic activity the identical procedure is used as for the determination of the agonistic effects, but with the difference that the substance to be evaluated for its antagonistic activity is injectected 5 minutes before the intravenous injection of 1.25 mg/kg Win-55,212 a known cannabinoid-receptor agonist.
as §9, §10, §11, §12, §13
The chosen scoring system is • 0: no ataxia; • 1: doubful; • 2: obvious calmness and quiet; • 3 pronounced ataxia; prior to as well as after treatment. […]

[4] = target: T2, transfected human CB2 receptor (Homo sapiens, UniProt P34972); experiment: In-vitro determination of affinity to CB2 receptor, radioligand [^3H]-CP55940; format: binding; conditions: 10^−6 M
T2 construct: purchased Receptor Biology, Inc
Protocol: as §1, §2, §3

T1 sequence (P21554 whole entry): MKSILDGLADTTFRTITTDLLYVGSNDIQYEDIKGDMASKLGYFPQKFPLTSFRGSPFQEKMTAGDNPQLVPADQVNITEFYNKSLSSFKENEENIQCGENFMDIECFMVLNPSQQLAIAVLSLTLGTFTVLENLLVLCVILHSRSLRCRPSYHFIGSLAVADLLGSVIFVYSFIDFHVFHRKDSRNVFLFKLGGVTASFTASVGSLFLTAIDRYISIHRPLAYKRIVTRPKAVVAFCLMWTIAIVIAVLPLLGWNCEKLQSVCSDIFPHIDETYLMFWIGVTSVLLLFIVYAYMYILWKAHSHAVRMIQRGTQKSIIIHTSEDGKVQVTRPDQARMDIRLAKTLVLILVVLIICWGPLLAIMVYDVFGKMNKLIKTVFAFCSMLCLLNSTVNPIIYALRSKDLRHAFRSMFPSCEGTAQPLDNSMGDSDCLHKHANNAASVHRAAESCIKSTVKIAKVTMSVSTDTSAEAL
T2 sequence (P34972 whole entry): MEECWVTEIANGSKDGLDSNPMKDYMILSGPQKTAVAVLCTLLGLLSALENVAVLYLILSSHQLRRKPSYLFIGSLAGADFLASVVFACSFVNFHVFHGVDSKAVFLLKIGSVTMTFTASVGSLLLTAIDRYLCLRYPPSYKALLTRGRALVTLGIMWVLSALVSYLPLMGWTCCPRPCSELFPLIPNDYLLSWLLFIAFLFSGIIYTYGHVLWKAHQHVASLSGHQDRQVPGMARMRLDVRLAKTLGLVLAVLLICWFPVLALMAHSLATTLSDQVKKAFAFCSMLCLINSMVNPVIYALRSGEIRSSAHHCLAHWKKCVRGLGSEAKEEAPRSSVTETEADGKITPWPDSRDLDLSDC

SMILES | Ki ([1]; radioligand [^3H]-CP55940) [nM] | inhibition at 1 µM [1] [%] | Agonistic effect A: Hot-Plate test (cannabinoid receptors [2]) | Agonistic effect B: Hypothermia (cannabinoid receptors [2]) | Agonistic effect C: Catalepsy (cannabinoid receptors [2]) | Agonistic effect D: Sedation (cannabinoid receptors [2]) | Antagonistic Effect A: Hot-Plate test (cannabinoid receptors [3]) | Antagonistic Effect B: Hypothermia (cannabinoid receptors [3]) | Antagonistic Effect C: Catalepsy (cannabinoid receptors [3]) | Antagonistic Effect D: Sedation (cannabinoid receptors [3]) | inhibition at 1 µM [4] [%] | melting point [°C]
C[C@H]1[C@H](NS(=O)(=O)c2ccc(F)cc2)CN1C(c1ccc(Cl)cc1)c1ccc(Cl)cc1 [Example 5, (2S, 3R)-N-{1-[Bis-(4-chlorophenyl)methyl]-2-methylazetidin-3-yl}-4-fluoro-benzene sulfonamide] | 264 | 59 | 2 | 0 | 0 | 0 | 77 | 100 | 71 | 57 | 4.6 | 154 to 157
C[C@H]1[C@H](NS(=O)(=O)c2cccs2)CN1C(c1ccc(Cl)cc1)c1ccc(Cl)cc1 [Example 6, Thiophene-2-sulfonic acid {(2S,3R)-1-[bis-(4-chloro-phenyl)-methyl]-2-methyl-azetidin-3-yl}-amide] | – | 66 | 0 | 0 | 0 | 0 | 32 | 32 | 51 | 46 | 13.5 | 72 to 76
